# Experimental data published in ChEMBL document CHEMBL1150107, “Isolation and in vitro antiplasmodial activities of alkaloids from Teclea trichocarpa: in vivo antimalarial activity and X-ray crystal structure of normelicopicine” (J Nat Prod, 2002).
# Tests used:
# Plasmodium falciparum [1] = experiment: Antiplasmodial activity against chloroquine-sensitive Plasmodium falciparum HB3 after 48 hrs by LDH reporter activity; assay type: functional, organism-based; details: HB3, 48 h
# Plasmodium falciparum [2] = experiment: Antiplasmodial activity against chloroquine-resistant Plasmodium falciparum K1 after 48 hrs by LDH activity; assay type: functional, organism-based; details: K1, 48 h
# Plasmodium berghei [3] = experiment: Antimalarial activity as reduced parasitaemia at day 5 against Plasmodium berghei ANKA infected in BALB/c mice (Mus musculus) at 10 mg/kg/day intraperitoneal dose over 4 days; assay type: functional; set-up: scale not given: the % may be the effect or the level left
# KB = experiment: Cytotoxicity against human KB cells by alamar blue assay; assay type: cell-based
# Plasmodium berghei [4] = experiment: Antimalarial activity as reduced parasitaemia at day 5 against Plasmodium berghei ANKA infected BALB/c mice (Mus musculus) at 25 mg/kg/day intraperitoneal dose over 4 days; assay type: functional; set-up: scale not given: the % may be the effect or the level left
# [5] = Selectivity index, ratio of IC50 for human KB cells to IC50 for chloroquine-sensitive Plasmodium falciparum HB3; assay type: toxicity, cell-based; details: read-out: Ratio IC50
# [6] = Selectivity index, ratio of IC50 for human KB cells to IC50 for chloroquine-resistant Plasmodium falciparum K1; assay type: toxicity, cell-based; details: read-out: Ratio IC50
Compound,IC50 (Plasmodium falciparum [1]) [µM],IC50 (Plasmodium falciparum [2]) [µM],also measured
COc1ccc2c(=O)c3c(OC)c4c(cc3n(C)c2c1OC)OCO4,32.3,56.9,–
COc1cc2c(c(O)c1OC)c(=O)c1ccccc1n2C [ARBORININE],3.85,9.34,–
CCN(CC)CCCC(C)Nc1ccnc2cc(Cl)ccc12.O=P(O)(O)O.O=P(O)(O)O (stereo not drawn) [CHLOROQUINE PHOSPHATE],–,–,Activity (Plasmodium berghei [3]): 100%
COc1c(OC)c(OC)c2c(c1OC)c(=O)c1ccccc1n2C [MELICOPICINE],> 100,> 100,–
COc1c(OC)c(OC)c2c(c1O)c(=O)c1ccccc1n2C [NORMELICOPICINE],8.25,14.7,IC50 (KB): > 328 µM; Activity (Plasmodium berghei [4]): 32.1%; selectivity ratio [5]: 22; selectivity ratio [6]: 40
COc1cc([C@@H]2c3cc4c(cc3[C@H](O)[C@H]3COC(=O)[C@H]23)OCO4)cc(OC)c1OC [PODOFILOX],–,–,IC50 (KB): 0.0048 µM
COc1ccc2c(OC)c3ccoc3nc2c1OC [SKIMMIANINE],47.5,59,–
COc1c2c(cc3c1c(=O)c1cccc(OC)c1n3C)OCO2 [TECLEANTHINE],23.2,53,–
